Where two headings read alike, the source gives them in different places. One block for each compound: values may come before it.
Assays:
Assay type in all cases: cell-based
[1] = tested on: Pseudomonas aeruginosa NCIB 10421; test: MIC and Fractional Inhibitory Concentration (FIC) in microtitre array
Experimental: The gram negative bacterium, Pseudomonas aeruginosa NCIB 10421 was grown in nutrient broth to stationary phase during 18 hours and contained approximately 10^9 organisms/ml. A 0.1% (v/v) inoculum was used to seed fresh nutrient broth and 100 μl was then added to each well of a microtitre plate, except for the first well which contained 200 μl.
Solutions of zinc acetate (ZnAc) and the 2:1 zinc complex of 3-hydroxy-4-methylthiazol-2(3H)-thione (ZHMT), respectively, were prepared in nutrient broth at twice the final concentration to be used in the microtitre array. A microtitre array was prepared with concentration of zinc acetate and ZHMT from twice the MIC down to zero concentration in a 10×10 array. Since the array contains only 96 wells, the highest and lowest concentration of the zinc acetate and ZHMT were omitted. The dilution of the ZHMT was doubled across the ordinate axis of the array by transferring 100 μl aliquots so that the final volume in each well was 200 μl. The microtitre plate was then incubated for 16 to 24 hours at 37° C. and the presence of bacterial growth assessed visually.
The FIC is defined as the sum of the fractional inhibitory concentration of each component. The FIC of the individual component is the ratio of the concentration of the component in the binary mixture divided by its MIC.

[2] = tested on: contaminated matt paint millbase; test: Viable cells in contaminated matt paint millbase; parameters: key to Viable cells after (days) 5 / Viable cells after (days) 7 / Viable cells after (days) 14: C is confluent growth over the surface; − is no visible colonies; + is few visible colonies; ++ is clusters of discreet colonies
Experimental: 25 ml Aliquots of a contaminated matt paint millbase were formulated with the 2:1 zinc complex of 3-hydroxy-4-methylthiazol-2(3H)-thione and zinc acetate as shown in Table 2 below. The number of variable cells was determined by streaking a small portion of each aliquot of millbase onto nutrient agar after 5, 7 and 14 days. The number of cells was determined by visible assessment following incubation for 2 days at 30° C.

mixed bacterial culture = test: Preservation of unpreserved latex, repeated challenge with mixed bacterial culture; parameters: key to Viable bacteria, Third inoculum (days) 5 / Viable bacteria, Third inoculum (days) 7 / Viable bacteria, First inoculum (days) 3 / Viable bacteria, First inoculum (days) 5 / Viable bacteria, First inoculum (days) 7 / Viable bacteria, Second inoculum (days) 3 / Viable bacteria, Second inoculum (days) 5 / Viable bacteria, Second inoculum (days) 7 / Viable bacteria, Third inoculum (days) 3: C is confluent growth over the surface; − is no visible colonies; + is few visible colonies; ++ is clusters of discreet colonies; conditions: for antimicrobial activity in latex: zinc salt alone, 200 ppm (Table 1)
Experimental: Aliquots (25 parts) of unpreserved latex containing 50% by weight solids of a copolymer of 2-ethylhexylacrylate/acrylic acid at pH 8.5 were formulated with zinc acetate and the 2:1 zinc complex of 3-hydroxy4-methyl thiazol-2(3H)-thione in the amounts shown in Table 1 below. After formulation, each aliquot was stored at 20° C. for 1 week prior to inoculation with a mixed bacterial culture.
The bacterial culture was prepared by culturing the following seven bacteria in nutrient agar for 24 hours at 30° C.
Each of the individual bacterium was prepared at a concentration of 10^8 cells/ml in quarter strength Ringers solution by means of a Thoma counting chamber. The mixed inoculum was prepared by mixing equal volumes of the cultures containing the individual bacterium.
The latex aliquots were repeatedly inoculated at 0, 7 and 14 day intervals with 0.5 ml mixed inoculum (2×10^6 cells/ml) and incubated at 30° C. The number of viable bacteria was determined by streaking a small portion of each aliquot of latex onto nutrient agar after 3, 5 and 7 days followed by visible assessment after incubation for 2 days at 30° C.

mixed inoculum = test: Preservation of styrene-acrylic emulsion paint, challenge with mixed inoculum; parameters: key to Bacterial growth, First Inoculum Days 4 / Bacterial growth, First Inoculum Days 7 / Bacterial growth, Second Inoculum Days 4 / Bacterial growth, Second Inoculum Days 7 / Bacterial growth, Second Inoculum Days 14 / Bacterial growth, Third Inoculum Days 4 / Bacterial growth, Third Inoculum Days 7 / Bacterial growth, Third Inoculum Days 21: − = no growth (no visible colonies); + = light growth (a few visible colonies); ++ = moderate growth (discrete colonies visible, some coalescence); +++ = dense, confluent growth (coalescing colonies visible throughout streak); conditions: for Bacterial growth, First Inoculum Days 4 / Bacterial growth, First Inoculum Days 7 / Bacterial growth, Second Inoculum Days 4 / Bacterial growth, Second Inoculum Days 7 / Bacterial growth, Second Inoculum Days 14 / Bacterial growth, Third Inoculum Days 4 / Bacterial growth, Third Inoculum Days 7 / Bacterial growth, Third Inoculum Days 21: emulsion paint
Experimental: An inoculum was prepared containing the following micro-organisms:
Each of the individual bacterium was cultured in nutrient agar and incubated at 30° C. for 24 hours followed by suspension in quarter strength Ringers solution by means of a Thoma countering chamber to give 10^8 cells/ml. A mixed inoculum was prepared by combining equal volumes.
An aliquot of the starch containing the ZHMT, and optionally zinc acetate, was inoculated weekly with 0.5 ml of the mixed inoculum on three occasions to give 2×10^6 cells/ml. The aliquots were then incubated at 30° C. and examined for bacterial growth by streaking a small sample onto nutrient agar and incubating at 30° C. for 2 days prior to visual examination.
Aliquots of a styrene-acrylic emulsion paint were treated with the 2:1 zinc complex of 3-hydroxy-4-methylthiazol-2(3H)-thione (ZHMT) optionally containing zinc acetate (ZnAc) or zinc oxide (ZnO). These aliquots were challenged with the mixed inoculum described in Example 5 and examined for bacterial growth as described in this previous example.

[3] = ZnAc replaced by the same weight of the metal salt
[4] = latex, Amount 200 ppm of each component present
[5] = Amount 25 ppm of each component present
[6] = Amount 50 ppm of each component present
[7] = latex, Amount 25 ppm of each component present
[8] = latex, Amount 50 ppm of each component present
[9] = latex, Amount 100 ppm of each component present

Compound: [Cl][Fe]([Cl])[Cl] [ferric chloride]
effect on the ZHMT ([1]; ZnAc replaced with half the weight of the metal salt): antagonistic effect

Compound: [Cl][Cu][Cl] [cupric chloride]
synergy with ZHMT [1, 3]: no synergy

Compound: CC(=O)[O-].CC(=O)[O-].[Zn+2] [ZA, zinc acetate]
effect on activity of the metal complex [2]: increases the bacterial activity of the metal complex
FIC [1]: 1
Minimum Inhibitory Concentrations (MIC) [1]: 250 ppm
Viable bacteria, First inoculum (days) 3 (mixed bacterial culture; [4]): −
Viable bacteria, First inoculum (days) 5 (mixed bacterial culture; [4]): −
Viable bacteria, First inoculum (days) 7 (mixed bacterial culture; [4]): −
Viable bacteria, Second inoculum (days) 3 (mixed bacterial culture; [4]): ++
Viable bacteria, Second inoculum (days) 5 (mixed bacterial culture; [4]): ++
Viable bacteria, Second inoculum (days) 7 (mixed bacterial culture; [4]): ++
Viable bacteria, Third inoculum (days) 3 (mixed bacterial culture; [4]): ++
Viable bacteria, Third inoculum (days) 5 (mixed bacterial culture; [4]): ++
Viable bacteria, Third inoculum (days) 7 (mixed bacterial culture; [4]): ++
antimicrobial activity in latex (mixed bacterial culture): no antimicrobial activity

Compound: [O-]n1ccccc1=S.[O-]n1ccccc1=S.[Zn+2] [2:1 zinc complex of 1-hydroxypyridine-2-thione]
synergy with ZnAc ([1]; ZHMT replaced by this complex): no synergy

Compound: [Cl-].[Cl-].[Zn+2] [ZC, zinc chloride]
Viable bacteria, First inoculum (days) 3 (mixed bacterial culture; [4]): +
Viable bacteria, First inoculum (days) 5 (mixed bacterial culture; [4]): −
Viable bacteria, First inoculum (days) 7 (mixed bacterial culture; [4]): −
Viable bacteria, Second inoculum (days) 3 (mixed bacterial culture; [4]): ++
Viable bacteria, Second inoculum (days) 5 (mixed bacterial culture; [4]): ++
Viable bacteria, Second inoculum (days) 7 (mixed bacterial culture; [4]): ++
Viable bacteria, Third inoculum (days) 3 (mixed bacterial culture; [4]): C
Viable bacteria, Third inoculum (days) 5 (mixed bacterial culture; [4]): C
Viable bacteria, Third inoculum (days) 7 (mixed bacterial culture; [4]): C
antimicrobial activity in latex (mixed bacterial culture): no antimicrobial activity

Compound: manganese chloride
synergy with ZHMT [1, 3]: no synergy

Minimum Inhibitory Concentrations (MIC) ([1]; nutrient broth, 16 to 24 hours at 37° C., single component): 32 ppm
Compound: Cc1csc(=S)n1[O-].Cc1csc(=S)n1[O-].[Zn+2] [ZHMT, 2:1 zinc complex of 3-hydroxy-4-methylthiazol-2(3H)-thione]
Bacterial growth, First Inoculum Days 4 (mixed inoculum; Conc. 10 (ppm ZHMT)): −
Bacterial growth, First Inoculum Days 7 (mixed inoculum; Conc. 10 (ppm ZHMT)): −
Bacterial growth, Second Inoculum Days 4 (mixed inoculum; Conc. 10 (ppm ZHMT)): +++
Bacterial growth, Second Inoculum Days 7 (mixed inoculum; Conc. 10 (ppm ZHMT)): +++
Bacterial growth, Second Inoculum Days 14 (mixed inoculum; Conc. 10 (ppm ZHMT)): +++
Bacterial growth, Third Inoculum Days 4 (mixed inoculum; Conc. 10 (ppm ZHMT)): +++
Bacterial growth, Third Inoculum Days 7 (mixed inoculum; Conc. 10 (ppm ZHMT)): +++
Bacterial growth, Third Inoculum Days 21 (mixed inoculum; Conc. 10 (ppm ZHMT)): +++
Bacterial growth, First Inoculum Days 4 (mixed inoculum; Conc. 25 (ppm ZHMT)): −
Bacterial growth, First Inoculum Days 7 (mixed inoculum; Conc. 25 (ppm ZHMT)): −
Bacterial growth, Second Inoculum Days 4 (mixed inoculum; Conc. 25 (ppm ZHMT)): +++
Bacterial growth, Second Inoculum Days 7 (mixed inoculum; Conc. 25 (ppm ZHMT)): +++
Bacterial growth, Second Inoculum Days 14 (mixed inoculum; Conc. 25 (ppm ZHMT)): +++
Bacterial growth, Third Inoculum Days 4 (mixed inoculum; Conc. 25 (ppm ZHMT)): +++
Bacterial growth, Third Inoculum Days 7 (mixed inoculum; Conc. 25 (ppm ZHMT)): +++
Bacterial growth, Third Inoculum Days 21 (mixed inoculum; Conc. 25 (ppm ZHMT)): +++
Bacterial growth, First Inoculum Days 4 (mixed inoculum; Conc. 50 (ppm ZHMT)): −
Bacterial growth, First Inoculum Days 7 (mixed inoculum; Conc. 50 (ppm ZHMT)): −
Bacterial growth, Second Inoculum Days 4 (mixed inoculum; Conc. 50 (ppm ZHMT)): +++
Bacterial growth, Second Inoculum Days 7 (mixed inoculum; Conc. 50 (ppm ZHMT)): +++
Bacterial growth, Second Inoculum Days 14 (mixed inoculum; Conc. 50 (ppm ZHMT)): +++
Bacterial growth, Third Inoculum Days 4 (mixed inoculum; Conc. 50 (ppm ZHMT)): +++
Bacterial growth, Third Inoculum Days 7 (mixed inoculum; Conc. 50 (ppm ZHMT)): +++
Bacterial growth, Third Inoculum Days 21 (mixed inoculum; Conc. 50 (ppm ZHMT)): +++
Bacterial growth, First Inoculum Days 4 (mixed inoculum; Conc. 100 (ppm ZHMT)): −
Bacterial growth, First Inoculum Days 7 (mixed inoculum; Conc. 100 (ppm ZHMT)): −
Bacterial growth, Second Inoculum Days 4 (mixed inoculum; Conc. 100 (ppm ZHMT)): +++
Bacterial growth, Second Inoculum Days 7 (mixed inoculum; Conc. 100 (ppm ZHMT)): +++
Bacterial growth, Second Inoculum Days 14 (mixed inoculum; Conc. 100 (ppm ZHMT)): +++
Bacterial growth, Third Inoculum Days 4 (mixed inoculum; Conc. 100 (ppm ZHMT)): +++
Bacterial growth, Third Inoculum Days 7 (mixed inoculum; Conc. 100 (ppm ZHMT)): +++
Bacterial growth, Third Inoculum Days 21 (mixed inoculum; Conc. 100 (ppm ZHMT)): +++
Bacterial growth, First Inoculum Days 4 (mixed inoculum; Conc. 200 (ppm ZHMT)): −
Bacterial growth, First Inoculum Days 7 (mixed inoculum; Conc. 200 (ppm ZHMT)): −
Bacterial growth, Second Inoculum Days 4 (mixed inoculum; Conc. 200 (ppm ZHMT)): ++
Bacterial growth, Second Inoculum Days 7 (mixed inoculum; Conc. 200 (ppm ZHMT)): ++
Bacterial growth, Second Inoculum Days 14 (mixed inoculum; Conc. 200 (ppm ZHMT)): ++
Bacterial growth, Third Inoculum Days 4 (mixed inoculum; Conc. 200 (ppm ZHMT)): +++
Bacterial growth, Third Inoculum Days 7 (mixed inoculum; Conc. 200 (ppm ZHMT)): +++
Bacterial growth, Third Inoculum Days 21 (mixed inoculum; Conc. 200 (ppm ZHMT)): +++
ZHMT level at which the paint is preserved (mixed inoculum; styrene-acrylic emulsion paint): > 200 ppm
Viable cells after (days) 5 [2, 5]: C
Viable cells after (days) 7 [2, 5]: C
Viable cells after (days) 14 [2, 5]: C
Viable cells after (days) 5 [2, 6]: C
Viable cells after (days) 7 [2, 6]: C
FIC ([1]; single component, relative conc. 1): 1
activity in the presence of both zinc salts (mixed bacterial culture; latex, especially after repeated challenge): significantly enhanced
Viable bacteria, First inoculum (days) 3 (mixed bacterial culture; [7]): −
Viable bacteria, First inoculum (days) 5 (mixed bacterial culture; [7]): −
Viable bacteria, First inoculum (days) 7 (mixed bacterial culture; [7]): −
Viable bacteria, Second inoculum (days) 3 (mixed bacterial culture; [7]): C
Viable bacteria, Second inoculum (days) 5 (mixed bacterial culture; [7]): C
Viable bacteria, Second inoculum (days) 7 (mixed bacterial culture; [7]): C
Viable bacteria, Third inoculum (days) 3 (mixed bacterial culture; [7]): C
Viable bacteria, Third inoculum (days) 5 (mixed bacterial culture; [7]): C
Viable bacteria, Third inoculum (days) 7 (mixed bacterial culture; [7]): C
Viable bacteria, First inoculum (days) 3 (mixed bacterial culture; [8]): ++
Viable bacteria, First inoculum (days) 5 (mixed bacterial culture; [8]): −
Viable bacteria, First inoculum (days) 7 (mixed bacterial culture; [8]): −
Viable bacteria, Second inoculum (days) 3 (mixed bacterial culture; [8]): ++
Viable bacteria, Second inoculum (days) 5 (mixed bacterial culture; [8]): +
Viable bacteria, Second inoculum (days) 7 (mixed bacterial culture; [8]): +
Viable bacteria, Third inoculum (days) 3 (mixed bacterial culture; [8]): C
Viable bacteria, Third inoculum (days) 5 (mixed bacterial culture; [8]): C
Viable bacteria, Third inoculum (days) 7 (mixed bacterial culture; [8]): C
Viable bacteria, First inoculum (days) 3 (mixed bacterial culture; [9]): ++
Viable bacteria, First inoculum (days) 5 (mixed bacterial culture; [9]): −
Viable bacteria, First inoculum (days) 7 (mixed bacterial culture; [9]): −
Viable bacteria, Second inoculum (days) 3 (mixed bacterial culture; [9]): ++
Viable bacteria, Second inoculum (days) 5 (mixed bacterial culture; [9]): +
Viable bacteria, Second inoculum (days) 7 (mixed bacterial culture; [9]): −
Viable bacteria, Third inoculum (days) 3 (mixed bacterial culture; [9]): ++
Viable bacteria, Third inoculum (days) 5 (mixed bacterial culture; [9]): ++
Viable bacteria, Third inoculum (days) 7 (mixed bacterial culture; [9]): ++
Viable bacteria, First inoculum (days) 3 (mixed bacterial culture; [4]): +
Viable bacteria, First inoculum (days) 5 (mixed bacterial culture; [4]): −
Viable bacteria, First inoculum (days) 7 (mixed bacterial culture; [4]): −
Viable bacteria, Second inoculum (days) 3 (mixed bacterial culture; [4]): ++
Viable bacteria, Second inoculum (days) 5 (mixed bacterial culture; [4]): +
Viable bacteria, Second inoculum (days) 7 (mixed bacterial culture; [4]): −
Viable bacteria, Third inoculum (days) 3 (mixed bacterial culture; [4]): ++
Viable bacteria, Third inoculum (days) 5 (mixed bacterial culture; [4]): ++
Viable bacteria, Third inoculum (days) 7 (mixed bacterial culture; [4]): ++

Compound: [Cl-].[Cl-].[Mg+2] [magnesium chloride]
synergy with ZHMT [1]: no synergy

Reference: patent US6339081B1, “Composition and use” (priority 1996, dated 2002)
